Results on three compounds are retold here after ChEMBL document CHEMBL3120146, “Synthesis and biological evaluation of new boron-containing chlorin derivatives as agents for both photodynamic therapy and boron neutron capture therapy of cancer” (Bioorg Med Chem Lett, 2014).

Data set [1] concerns Serum. The experiment in a line: Biodistribution in BALB/c mouse serum allografted with mouse Colon 26 cells at 10 umol/kg, iv measured at 3 hrs by spectrofluorometric analysis. It counts as ADME, organism-based. The settings on record: in vivo.
In another data set the test system is Brain. Description: Biodistribution in BALB/c mouse brain allografted with mouse Colon 26 cells at 10 umol/kg, iv measured at 24 hrs by spectrofluorometric analysis. It counts as ADME, organism-based. The conditions noted are these: in vivo.
The subject of a further data set is Lung. The experiment in a line: Biodistribution in BALB/c mouse lung allografted with mouse Colon 26 cells at 10 umol/kg, iv measured at 24 hrs by spectrofluorometric analysis. In kind it is ADME, organism-based. The settings on record: in vivo.
Data set [2] concerns Tumour. The experiment in a line: Biodistribution in tumor of BALB/c mouse allografted with mouse Colon 26 cells at 10 umol/kg, iv measured at 3 hrs by spectrofluorometric analysis. It counts as ADME, organism-based. The conditions noted are these: in vivo.
Data set [3] relates to Colon 26. Description: Cytotoxicity against mouse Colon 26 cells assessed as cell viability at 1 to 10 uM after 24 hrs by WST-8 assay. It counts as cell-based. The conditions noted are these: colon 26, 24 h.
For data set [4], the system named is Liver. The experiment in a line: Biodistribution in BALB/c mouse liver allografted with mouse Colon 26 cells at 10 umol/kg, iv measured at 1 to 12 hrs by spectrofluorometric analysis. It counts as ADME, organism-based. The conditions noted are these: in vivo.
The subject of a further data set is Muscle tissue. The experiment in a line: Biodistribution in BALB/c mouse muscle allografted with mouse Colon 26 cells at 10 umol/kg, iv measured at 24 hrs by spectrofluorometric analysis. The settings on record: in vivo. It counts as ADME, organism-based.
For data set [5], the system named is Serum. Description: Biodistribution in BALB/c mouse serum allografted with mouse Colon 26 cells at 10 umol/kg, iv measured at 6 to 12 hrs by spectrofluorometric analysis. In kind it is ADME, organism-based. The settings on record: in vivo.
For data set [6], the system named is Serum. Description: Biodistribution in BALB/c mouse serum allografted with mouse Colon 26 cells at 10 umol/kg, iv measured at 1 hr by spectrofluorometric analysis. It counts as ADME, organism-based. The conditions noted are these: in vivo.
Data set [7] is described as follows: Solubility of the compound in water. In kind it is physicochemical.
The subject of a further data set is Kidney. Description: Biodistribution in BALB/c mouse kidney allografted with mouse Colon 26 cells at 10 umol/kg, iv measured at 24 hrs by spectrofluorometric analysis. The settings on record: in vivo. It counts as ADME, organism-based.
For data set [8], the system named is Liver. The experiment in a line: Biodistribution in BALB/c mouse liver allografted with mouse Colon 26 cells at 10 umol/kg, iv measured at 24 hrs by spectrofluorometric analysis. In kind it is ADME, organism-based. The settings on record: in vivo.
For data set [9], the system named is Serum. The experiment in a line: Biodistribution in BALB/c mouse serum allografted with mouse Colon 26 cells at 10 umol/kg, iv measured at 24 hrs by spectrofluorometric analysis. In kind it is ADME, organism-based. The settings on record: in vivo.
In a further data set the test system is Zone of skin. The experiment in a line: Biodistribution in BALB/c mouse skin allografted with mouse Colon 26 cells at 10 umol/kg, iv measured at 24 hrs by spectrofluorometric analysis. In kind it is ADME, organism-based. The settings on record: in vivo.
The next data set relates to Spleen. The experiment in a line: Biodistribution in BALB/c mouse spleen allografted with mouse Colon 26 cells at 10 umol/kg, iv measured at 24 hrs by spectrofluorometric analysis. The conditions noted are these: in vivo. It counts as ADME, organism-based.
The subject of data set [10] is Colon 26. Description: Antitumor activity against mouse Colon 26 cells allografted in BALB/c mouse assessed as tumor growth inhibition at 10 umol/kg, iv pretreated for 3 hrs followed by light-emitting diode irradiation at 660 nm wavelength measured after 3 to 7 days by photodynamic therapy. In kind it is functional, organism-based. The settings on record: tested as the 10B-labelled form.

The test system of data set [11] is Tumour. The experiment in a line: Biodistribution in tumor of BALB/c mouse allografted with mouse Colon 26 cells at 10 umol/kg, iv measured at 12 hrs by spectrofluorometric analysis. It counts as ADME, organism-based. The settings on record: in vivo.

Calls of active or inactive are those of the source. No cut-off for these calls is given here.

In the case of `C=Cc1c(C)c2cc3nc(cc4[nH]c(cc5nc(cc1[nH]2)C(C)(O)/C5=C\C=N\OCC)c(C)c4CCC(=O)NC(Cc1ccc([10B](O)O)cc1)C(=O)[O-])C(CCC(=O)NC(Cc1ccc([10B](O)O)cc1)C(=O)[O-])=C3C.[Na+].[Na+]` (configuration not stated), the Drug uptake in the data set with Serum [1] is on record as 32.2 pmol/mg; with Brain it was “Active”; with Lung it was “Active”; in the data set on Tumour [2], 0.27 pmol/mg; in the data set on Liver [4], “Active”; with Muscle tissue it was “Active”. Further, the Drug uptake entry is given as “Active” with Serum [5]; 7.6 pmol/mg with Serum [6]; “Active” in the data set on Kidney; “Active” in the data set on Liver [8]; “Not Active” with Serum [9]; “Active” with Zone of skin. For the same compound, the Drug uptake entry in the data set with Spleen is given as “Active”. In addition, the Activity result with Colon 26 [3] is on record as “Non-toxic”. In [7], the solubility (as a rule, the concentration that dissolves in the medium under given conditions) came out at 100 µg/mL.

For `C=Cc1c(C)c2cc3nc(cc4[nH]c(cc5nc(cc1[nH]2)C(C)(O)/C5=C\C=N\OCC)c(C)c4CCC(=O)NC(Cc1ccc(B(O)O)cc1)C(=O)O)C(CCC(=O)NC(Cc1ccc(B(O)O)cc1)C(=O)O)=C3C` (configuration not stated), the TGI entry with Colon 26 [10] was “Active”.

Take `C=Cc1c(C)c2cc3nc(cc4[nH]c(cc5nc(cc1[nH]2)C(C)(O)/C5=C\C=N\OCCCNC(=O)/C=C/c1ccc([10B](O)O)cc1)c(C)c4CCC(=O)N(CC(=O)[O-])CC(=O)[O-])C(CCC(=O)N(CC(=O)[O-])CC(=O)[O-])=C3C.[Na+].[Na+].[Na+].[Na+]` (configuration not stated): the Drug uptake entry in the data set on Brain was “Active”; in the data set with Lung, “Active”; in the data set on Muscle tissue it was “Active”; in the data set with Kidney, “Active”; with Tumour [11] it was 0.21 pmol/mg; in the data set with Liver [8], “Active”. Besides, the values for the Drug uptake entry in the data set on Serum [9], in the data set with Zone of skin and with Spleen were “Not Active”, “Active” and “Active”, respectively. Besides, the Activity entry with Colon 26 [3] is “Non-toxic”. In data set [7], this compound showed a solubility of 100 µg/mL.
